Reference: US8241863B2, “Identification of an evolutionarily conserved pathway mediating transrepression of inflammatory response genes by nuclear receptors” (The Regents of the University of California, priority 2005, dated 2012)

Assays:
iNOS promoter = test: iNOS-luciferase reporter transrepression in RAW264.7 cells transfected with PPARγ; assay type: cell-based, mouse
Description: For transrepression experiments, wild-type PPARγ or PPARγ mutants were transfected at a 3:1 ratio to reporter plasmids using Superfect reagent (Qiagen). […] Transfection experiments evaluated each experimental condition in triplicate and results were expressed as mean +/− standard deviation. Each transfection experiment was independently repeated at least three times. Statistical analysis was preformed using Student's t-test with P<0.01 considered statistically significant.
In FIG. 1b, RAW264.7 cells were transfected with the indicated siRNAs and PPARγ expression and iNOS-luciferase reporter plasmids. Cells were treated with LPS and/or Ro as in panel a prior to assay of luciferase activity. […] In FIG. 1d, RAW264.7 cells were transfected with the indicated siRNAs and PPARγ expression and iNOS-luciferase reporter plasmids. Cells were treated with LPS and/or Ro as in FIG. 1a, prior to assay of luciferase activity. […] In FIG. 1f, RAW264.7 cells were transfected with the indicated siRNAs and PPARγ expression and iNOS-luciferase reporter plasmids and stimulated with LPS for 6 h prior to assay of luciferase activity.
In FIG. 4a, RAW264.7 cells were transfected with the iNOS reporter, PPARγ expression plasmid and Ubc9-siRNA. 36 h post-transfection cells were pretreated with Ro for 1 h and LPS for 6 h prior to assay of luciferase activity. […]

PPARγ = target: T1, PPARγ (Mus musculus, UniProt P37238); test: Transactivation assay on positively regulated PPARγ-dependent promoter (Aox-TK luciferase) in RAW264.7 cells; assay type: cell-based
T1 construct: expressed in transfected cells; host or cells: RAW264.7 mouse macrophage cell line
T1 sequence (P37238 1-475 isoform P37238-2): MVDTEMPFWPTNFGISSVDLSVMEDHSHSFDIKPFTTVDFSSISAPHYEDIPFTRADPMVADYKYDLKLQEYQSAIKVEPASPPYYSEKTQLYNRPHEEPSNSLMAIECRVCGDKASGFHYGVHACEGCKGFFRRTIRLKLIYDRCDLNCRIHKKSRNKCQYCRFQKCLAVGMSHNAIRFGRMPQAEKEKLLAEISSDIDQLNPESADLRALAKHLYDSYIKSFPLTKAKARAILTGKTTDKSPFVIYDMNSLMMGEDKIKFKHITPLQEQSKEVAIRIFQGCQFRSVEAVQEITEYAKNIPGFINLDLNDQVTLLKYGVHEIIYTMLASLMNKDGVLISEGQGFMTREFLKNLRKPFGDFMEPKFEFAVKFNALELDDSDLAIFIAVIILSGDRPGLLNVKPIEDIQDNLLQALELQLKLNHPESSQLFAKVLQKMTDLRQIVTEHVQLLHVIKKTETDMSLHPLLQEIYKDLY
Description: The RAW264.7 mouse macrophage cell line was transiently transfected with plasmids containing the iNOS or Aox-TK promoters directing luciferase expression as previously described 22. For transrepression experiments, wild-type PPARγ or PPARγ mutants were transfected at a 3:1 ratio to reporter plasmids using Superfect reagent (Qiagen). For siRNA experiments, RAW264.7 cells were transfected with siRNAs (40 nM) using Superfect reagent for 48 h prior to activation with PPARγ ligands and LPS induction. […] Transfection experiments evaluated each experimental condition in triplicate and results were expressed as mean +/− standard deviation. Each transfection experiment was independently repeated at least three times. Statistical analysis was preformed using Student's t-test with P<0.01 considered statistically significant.
In FIG. 5b, in vivo detection of SUMOylation of PPARγ was performed in HeLa cells transfected with myc-tagged Sumo1 and HA-tagged WT-PPARγ or PPARγ^K365R. Cells were immunoprecipitated for HA tag and blotted for myc tag. NT refers to non-transfected cells. In FIG. 5c, RAW264.7 cells were transfected with wild-type (WT) and mutant HA-PPARγ and Flag(FL)-tagged PIAS1 expression plasmids and treated with Ro for 0, 10, 30 or 60 min. Whole cell extracts were immunoprecipitated for HA tag followed by western blotting for FL-PIAS1. […]

PPARγ-sensitive genes = test: Microarray of primary macrophages transfected with control or NCoR siRNA; assay type: cell-based; details: NCoR siRNA vs control siRNA
Description: To determine how widely the SUMOylation/NCoR-dependent pathway is utilized by PPARγ to repress inflammatory response genes, microarray studies were performed in primary macrophages transfected with control siRNAs or siRNAs directed against NCoR mRNA.

SMILES	repression of LPS induced iNOS promoter activity (iNOS promoter)	transactivation activity (PPARγ)	PPARγ-sensitive genes whose repression by ligand was abolished by knockdown of NCoR (PPARγ-sensitive genes) [%]
CN(CCOc1ccc(C[C@H](Nc2ccccc2C(=O)c2ccccc2)C(=O)O)cc1)c1ccccn1 [GW1929]	very weak repressor	strong transactivation activity	–
CN(CCOc1ccc(CC2SC(=O)NC2=O)cc1)c1ccccn1 (stereo not drawn) [rosiglitazone]	–	–	80
